In patent US4746728A, “8-glycine, des-19-leucine-calcitonin” (Armour Pharmaceutical Company, priority 1986, dated 1988):
Positions of bridges follow the written chain, without caps; N, C: chain ends. Residues, ends and D or L forms follow the SMILES beside them. No end group written: not given here.

Assays:
[1] = test system: serum calcium concentration
Method: Biological Assay Of Calcitonin Analogs In Vivo
Rats were divided into four groups of seven animals, and each group was assigned at random to a dose of standard or test solution. Low and high doses were chosen from the linear portion of the dose-response curve. For the salmon calcitonin standard, the values were 0.7 and 2.1 ng. peptide/100 g. body weight (BW). This dose approximates 3 and 9 MU/100 g. […] Peptides were given by subcutaneous injection (0.2 ml/100 g. BW) and blood was withdrawn 1 hour later for serum calcium determination. Sera are processed and analyzed within two hours of collection. Results were analyzed within two hours of collection.

[2] = literature values, Monikawa et al.; cited from earlier work

With `CC(C)C[C@H](NC(=O)CNC(=O)[C@@H]1CSSC[C@H](N)C(=O)N[C@@H](CO)C(=O)N[C@@H](CC(N)=O)C(=O)N[C@@H](CC(C)C)C(=O)N[C@@H](CO)C(=O)N[C@@H]([C@@H](C)O)C(=O)N1)C(=O)NCC(=O)N[C@@H](CCCCN)C(=O)N[C@@H](CC(C)C)C(=O)N[C@@H](CO)C(=O)N[C@@H](CCC(N)=O)C(=O)N[C@@H](CCC(=O)O)C(=O)N[C@@H](CC(C)C)C(=O)N[C@@H](Cc1c[nH]cn1)C(=O)N[C@@H](CCCCN)C(=O)N[C@@H](CCC(N)=O)C(=O)N[C@H](C(=O)N[C@@H](Cc1ccc(O)cc1)C(=O)N1CCC[C@H]1C(=O)N[C@@H](CCCNC(=N)N)C(=O)N[C@H](C(=O)N[C@@H](CC(N)=O)C(=O)N[C@H](C(=O)NCC(=O)N[C@@H](CO)C(=O)NCC(=O)N[C@H](C(=O)N1CCC[C@H]1C(N)=O)[C@@H](C)O)[C@@H](C)O)[C@@H](C)O)[C@@H](C)O` [Gly^8, des-Leu^19 -SCT, 8-glycine, des-19-leucine-salmon calcitonin] (H-CSNLSTCGLGKLSQELHKQTYPRTNTGSGTP-NH2; disulfide 1-7) the biological potency ([1]; rat, in vivo, sc) was 11,400 IU/mg.
For `CC(C)C[C@H](NC(=O)[C@H](CCCCN)NC(=O)CNC(=O)[C@H](CC(C)C)NC(=O)[C@@H](NC(=O)[C@@H]1CSSC[C@H](N)C(=O)N[C@@H](CO)C(=O)N[C@@H](CC(N)=O)C(=O)N[C@@H](CC(C)C)C(=O)N[C@@H](CO)C(=O)N[C@@H]([C@@H](C)O)C(=O)N1)C(C)C)C(=O)N[C@@H](CO)C(=O)N[C@@H](CCC(N)=O)C(=O)N[C@@H](CCC(=O)O)C(=O)N[C@@H](CC(C)C)C(=O)N[C@@H](Cc1c[nH]cn1)C(=O)N[C@@H](CCCCN)C(=O)N[C@@H](CC(C)C)C(=O)N[C@@H](CCC(N)=O)C(=O)N[C@H](C(=O)N[C@@H](Cc1ccc(O)cc1)C(=O)N1CCC[C@H]1C(=O)N[C@@H](CCCNC(=N)N)C(=O)N[C@H](C(=O)N[C@@H](CC(N)=O)C(=O)N[C@H](C(=O)NCC(=O)N[C@@H](CO)C(=O)NCC(=O)N[C@H](C(=O)N1CCC[C@H]1C(N)=O)[C@@H](C)O)[C@@H](C)O)[C@@H](C)O)[C@@H](C)O` [salmon calcitonin, Salmon calcitonin], the “potency of the standard salmon calcitonin used” value ([1]; independently determined content of the standard) was “greater than 4,000 IU/mg”.
In the case of “eel calcitonin (CSNLSTCVLGKLSQELHKLQTYPRTDVGAGTP; ends and bridges not checked; cysteine pairing not given here; UniProt P01262 1-32, looked up) [synthetic eel calcitonin, natural 32-amino-acid calcitonin peptide]”, the hypocalcemic potency [2] is given as “around 4300 IU/mg”.
